Measured values reported in patent US5030624A, “R-diastereomer of an N^6 -[(2-hydroxypropyl)aryl]adenosine and its medicinal uses” (G. D. Searle & Co., priority 1988, dated 1991).
Entries after “also recorded” stand apart in the source; their conditions may differ.

Columns and labels:
[1] = test system: plasma renin activity (PRA); assay: Change in plasma renin activity (PRA) in the bilateral renal artery ligated rat; format: in vivo, rat (Sprague-Dawley); conditions: 1 mg/kg I.V.; for prevention of PRA increases / inhibition of renin release (in words): 30 and 60 minutes; for CHANGE IN PRA: ^+ different from vehicle, p < .05
Method: Adenosine Al receptor stimulation will inhibit the release of renin from the kidney. A stimulus for the release of renin is renal ischemia. The ability of the compounds of the present invention to prevent an increase in PRA following renal ischemia was tested in rats with both renal arteries ligated. Sprague-Dawley rats were anesthetized with ether and the renal arteries were ligated. Three to five hours after anesthesia, arterial blood was sampled and compounds I and II were administered in polyethylene glycol at 1 mg/kg I.V. At 30 and 60 minutes after administration, arterial blood was sampled for PRA measurement by the method of Sealy, J. E. et al., Cardiovasc. Med. 2:1079, 1977.

mice [2] = assay: Behavioral toxicity at various times in mice; format: in vivo; on MOTOR DEPRESSION: key: +: toxic symptom observed; +*: toxic symptom observed; *2/7; on PTOSIS: key: +: toxic symptom observed; +*: toxic symptom observed; *2/7; on RESPIRATORY DEPRESSION: key: +: toxic symptom observed; +*: toxic symptom observed; *2/7; on loss of righting reflex: key: +: toxic symptom observed; +*: toxic symptom observed; *2/7
Method: The mice had previously been trained to remain on a rotating rod. After dosing, the percent of mice unable to remain on the rotating rod was determined. […] The mice were also observed at various time intervals for behavioral signs of toxicity.

[3] = test system: adenosine Al receptor in the granular juxtaglomerular cells of the kidney; conditions: Federation Proceedings 44:879 & 1643, 1985; cited from earlier work
hypertensive models = conditions: Federation Proceedings 44:879 & 1643, 1985; cited from earlier work
mice [4] = assay: Ataxia on rotating rod in mice; format: in vivo; conditions: ip, 0.5 or 3 hours
Method: Adenosine analogs tend to produce sedation and central nervous system depression which have prevented their therapeutic utility. The compounds of the invention, at doses which lower arterial pressure in the SHR, show no evidence of CNS depression. The ataxia produced by compounds of the present invention was measured in mice by injecting the compounds IP at doses of 32, 56, or 75 mg/kg in an aqueous suspension, n=7 per dose. The mice had previously been trained to remain on a rotating rod. After dosing, the percent of mice unable to remain on the rotating rod was determined. […] The mice were also observed at various time intervals for behavioral signs of toxicity.

[5] = test system: spontaneously hypertensive rats (SHR); assay: Effects on MAP and HR in conscious spontaneously hypertensive rats (SHR), I.V. or intragastric; format: in vivo, rat
Method: The effects of compounds I and II were tested intravenously or intragastrically in conscious spontaneously hypertensive rats (SHR). The rats were anesthetized with ether and the left carotid artery and right jugular vein were cannulated with polyethylene tubing. The rats were allowed three to five hours recovery from anesthesia for the I.V. studies and 12 to 18 hours for the oral studies. Mean arterial pressure (MAP, in mm/Hg) and heart rate (HR, beats/min.) were measured from the artery; intravenous administration of compounds was performed by injection into the vein. Oral administration was performed by gastric intubation. Compounds were dissolved in DMSO for I.V. studies and injected in volumes of 100 μl/kg or less (N=5 per compound). Doses were 3 to 1,000 μg/kg. Compounds were dissolved in polyethylene glycol for oral administration and injected in volumes of 1 ml/kg at a dose of 20 mg/kg/day for three days (N=3 to 6 per compound).
The resting MAP and HR for the SHR ranged between 160-200 mm Hg and 330/350 b/min., respectively.
Thus, the effects of the three compounds on MAP and HR were indistinguishable both by I.V. and oral administration.

[6] = Solubility of the separated diastereomers; format: physicochemical; conditions: for solubility in MeOH (in words): S isomer and R isomer compared
[7] = SHR, 20 mg/kg/day intragastric, day 2 of oral administration, N=3 to 6

SMILES	prevention of PRA increases / inhibition of renin release (in words) [1]	toxicity (in words) (mice [2]; 18-20 hours, 75 mg/kg ip)	MOTOR DEPRESSION (mice [2]; 0.5 hr, 75 mg/kg ip)	PTOSIS (mice [2]; 0.5 hr, 75 mg/kg ip)	RESPIRATORY DEPRESSION (mice [2]; 0.5 hr, 75 mg/kg ip)	MOTOR DEPRESSION (mice [2]; 3 hr, 75 mg/kg ip)	PTOSIS (mice [2]; 3 hr, 75 mg/kg ip)	RESPIRATORY DEPRESSION (mice [2]; 3 hr, 75 mg/kg ip)	solubility in MeOH (in words) [6]	further results
OC[C@H]1O[C@@H](n2cnc3c(NCC(O)COc4cccc5ccccc45)ncnc32)[C@H](O)[C@@H]1O (mixture of isomers) [Compound I, N(6)-[2-hydroxy-3-(1-naphthyloxy)propyl]-adenosine]	prevented to the same extent	still producing several of the toxic symptoms	+	+	+	+	+	+	–	FLACCIDITY, animals affected (footnote) (mice [2]; 18-20 hr, 75 mg/kg ip): 2/7; MOTOR DEPRESSION (mice [2]; 18-20 hr, 75 mg/kg ip): +; PTOSIS (mice [2]; 18-20 hr, 75 mg/kg ip): +; RESPIRATORY DEPRESSION (mice [2]; 18-20 hr, 75 mg/kg ip): +; toxicity (in words) (mice [2]; 3 hours, 75 mg/kg ip): flaccidity and loss of righting reflex; FLACCIDITY (mice [2]; 3 hr, 75 mg/kg ip): +; LOSS OF RIGHTING REFLEX (mice [2]; 3 hr, 75 mg/kg ip): +; binding to the adenosine Al receptor, inhibition of renin release (in words) [3]: binds to the adenosine Al receptor in the granular juxtaglomerular cells of the kidney to inhibit release of renin into the plasma; arterial blood pressure and heart rate (in words) (hypertensive models): reducing arterial blood pressure and heart rate in hypertensive models
OC[C@H]1O[C@@H](n2cnc3c(NC[C@@H](O)COc4cccc5ccccc45)ncnc32)[C@H](O)[C@@H]1O [Compound II, N^6-[2R-hydroxy-3-(1-naphthalenyloxy)propyl]-adenosine]	prevented to the same extent	no toxicity was observed	+	+	+	+	+	+	more soluble in MeOH	ataxia / motor toxicity (in words) (mice [4]): less ataxia at 0.5 or 3 hours as compared to compound I; also recorded: less motor toxicity than compound I; CHANGE IN PRA ([1]; 30 minutes after dosing): -6.6 ngAI/ml/hr; CHANGE IN PRA ([1]; 60 minutes after dosing): -6.3 ngAI/ml/hr; overall toxicity compared with compound I (in words) (mice [2]; mice, ip, ataxia and behavioral toxicity): substantially less toxic than compound I; also recorded: unexpectedly less toxic than compound I, both with regard to ataxia and behavioral toxicity; also recorded: less central nervous system toxicity than the racemic mixture; ED (HR decrease by 100 b/min) ([5]; Rattus norvegicus, iv, conscious SHR, I.V. in DMSO, N=5 per compound, read-out: IV DOSE TO DECREASE HR by 100 b/min): 0.031 ± 0.0014 mg/kg; ED (MAP decrease by 40 mmHg) ([5]; Rattus norvegicus, iv, conscious SHR, I.V. in DMSO, N=5 per compound, read-out: IV DOSE TO DECREASE MAP by 40 mmHg): 0.033 ± 0.0012 mg/kg; MAXIMUM DECREASE AT 20 MG/KG ig: HR [5, 7]: 177 ± 19 b/min; MAXIMUM DECREASE AT 20 MG/KG ig: MAP [5, 7]: 50 ± 14 mmHg; solubility (in words) ([6]; R diastereomer, solvent not stated): different solubility
OC[C@H]1O[C@@H](n2cnc3c(NC[C@H](O)COc4cccc5ccccc45)ncnc32)[C@H](O)[C@@H]1O [S isomer]	–	–	–	–	–	–	–	–	less soluble in MeOH	–
